Reference: patent US12390470B2, “1-methylxanthine-based bioactive composition and method of use thereof” (Ingenious Ingredients, LP, priority 2021, dated 2025)
Where two headings read alike, the source gives them in different places.

Tests used:
kidneys of Wistar rats = conditions: cited from earlier work
participants [1] = assay: Respiratory quotient, placebo-controlled crossover; format: in vivo, human
Description: All supplements were orally ingested with 8 fluid ounces of cold tap water. The order of administration for all interventions was randomized using a random allocation software to ensure randomization and to avoid order effects. After ingestion, participants completed all assessments in an identical fashion 30, 60, 90, 120, and 180 minutes after ingestion of their assigned supplement. All study visits took place between 0600-1000 hours. At least 72 hours of rest will take place between each condition.
The lower the RQ, the more fat that is being oxidized for body energy needs. The closer to 1.0 the more carbohydrate is being burned for energy needs. If numbers are lower more fat is being oxidized.

participants [2] = assay: Systolic blood pressure, crossover vs caffeine; format: in vivo, human
From the text: (§1) All supplements were orally ingested with 8 fluid ounces of cold tap water.

participants [3] = assay: Resting heart rate, crossover vs caffeine; format: in vivo, human
From the text: as §1

participants [4] = assay: Diastolic blood pressure, crossover vs caffeine; format: in vivo, human
Description: All supplements were orally ingested with 8 fluid ounces of cold tap water. Resting Heart Rate, Systolic and Diastolic Blood Pressure was measured at baseline, 30, 60, 90, 120 and 180 minutes after ingestion.

participants [5] = assay: Anxiety by Visual Analog Scale; format: in vivo, human
Description: All supplements were orally ingested with 8 fluid ounces of cold tap water. Anxiety was measured by Visual Analog Scale (VAS) at baseline, 30, 60, 90, 120 and 180 minutes after ingestion.

[6] = Person one, time 0, 200 mg oral
[7] = Person two, time 0, 200 mg oral

## Cn1c(=O)[nH]c(=O)c2[nH]cnc21 [3-methylxanthine]
Kidneys of Wistar rats; 100 mg kg^−1, after 16 days
  serum urea: Elevated values of serum urea were found
Kidneys of Wistar rats; 100 mg kg^−1 per day oral, after 16 days
  Tubular necrosis: Tubular necrosis was noticed
Kidneys of Wistar rats; 200 mg kg^−1, after 1 day
  serum urea: Elevated values of serum urea were found
Kidneys of Wistar rats; 200 mg kg^−1, after 8 days
  serum creatinine: Elevated values of serum creatinine were detected
Kidneys of Wistar rats; 200 mg kg^−1 per day oral, after 8 days
  Tubular necrosis: Tubular necrosis was noticed
Kidneys of Wistar rats; 50-200 mg per kg per day, 1-16 days
  overall renal outcome: dose- and time-related renal failure

## Cn1c(=O)c2c(ncn2C)n(C)c1=O [caffeine, reference compound]
Participants [1]; Average
  Respiratory Quotient MEAN (30-180): 0.701
Participants [1]; Person one
  Respiratory Quotient MEAN (30-180): 0.704
Participants [1]; Person one, 30 min after ingestion
  Respiratory Quotient: 0.70
Participants [1]; Person one, 60 min
  Respiratory Quotient: 0.65
Participants [1]; Person one, 90 min
  Respiratory Quotient: 0.70
Participants [1]; Person one, 120 min
  Respiratory Quotient: 0.74
Participants [1]; Person one, 180 min
  Respiratory Quotient: 0.73
Participants [1]; [6]
  Respiratory Quotient: 0.68
Participants [1]; Person two
  Respiratory Quotient MEAN (30-180): 0.698
Participants [1]; Person two, 30 min
  Respiratory Quotient: 0.70
Participants [1]; Person two, 60 min
  Respiratory Quotient: 0.71
Participants [1]; Person two, 90 min
  Respiratory Quotient: 0.71
Participants [1]; Person two, 120 min
  Respiratory Quotient: 0.71
Participants [1]; Person two, 180 min
  Respiratory Quotient: 0.66
Participants [1]; [7]
  Respiratory Quotient: 0.76
Participants [2]; Person one
  Systolic Blood Pressure MEAN (30-180): 130.0 mm Hg
Participants [2]; Person two
  Systolic Blood Pressure MEAN (30-180): 119.6 mm Hg
Participants [3]; Average, listed as CA
  Resting Heart Rate Mean Δ from 0: 10%
Participants [3]; Person one
  Resting Heart Rate Mean Δ from 0: +6.2 bpm
Participants [3]; Person one, 30 min
  Resting Heart Rate: 64 bpm
Participants [3]; Person one, 60 min
  Resting Heart Rate: 56 bpm
Participants [3]; Person one, 90 min
  Resting Heart Rate: 51 bpm
Participants [3]; Person one, 120 min
  Resting Heart Rate: 61 bpm
Participants [3]; Person one, 180 min
  Resting Heart Rate: 44 bpm
Participants [3]; [6]
  Resting Heart Rate: 49 bpm
Participants [3]; Person two
  Resting Heart Rate Mean Δ from 0: +4.6 bpm
Participants [3]; Person two, 30 min
  Resting Heart Rate: 65 bpm
Participants [3]; Person two, 60 min
  Resting Heart Rate: 62 bpm
Participants [3]; Person two, 90 min
  Resting Heart Rate: 62 bpm
Participants [3]; Person two, 120 min
  Resting Heart Rate: 64 bpm
Participants [3]; Person two, 180 min
  Resting Heart Rate: 69 bpm
Participants [3]; [7]
  Resting Heart Rate: 59 bpm
Participants [4]; Average
  Diastolic Blood Pressure MEAN (30-180): 80.2 mm Hg
Participants [4]; Average, listed as CA
  Diastolic Blood Pressure Mean Δ from 0: 20.3%
Participants [4]; Person one
  Diastolic Blood Pressure MEAN (30-180): 78.6 mm Hg
  Diastolic Blood Pressure Mean Δ from 0: +18.6 mm Hg
Participants [4]; Person one, 30 min
  Diastolic Blood Pressure: 77 mm Hg
Participants [4]; Person one, 60 min
  Diastolic Blood Pressure: 80 mm Hg
Participants [4]; Person one, 90 min
  Diastolic Blood Pressure: 83 mm Hg
Participants [4]; Person one, 120 min
  Diastolic Blood Pressure: 77 mm Hg
Participants [4]; Person one, 180 min
  Diastolic Blood Pressure: 76 mm Hg
Participants [4]; [6]
  Diastolic Blood Pressure: 60 mm Hg
Participants [4]; Person two
  Diastolic Blood Pressure MEAN (30-180): 81.8 mm Hg
  Diastolic Blood Pressure Mean Δ from 0: +8.8 mm Hg
Participants [4]; Person two, 30 min
  Diastolic Blood Pressure: 77 mm Hg
Participants [4]; Person two, 60 min
  Diastolic Blood Pressure: 96 mm Hg
Participants [4]; Person two, 90 min
  Diastolic Blood Pressure: 84 mm Hg
Participants [4]; Person two, 120 min
  Diastolic Blood Pressure: 75 mm Hg
Participants [4]; Person two, 180 min
  Diastolic Blood Pressure: 77 mm Hg
Participants [4]; [7]
  Diastolic Blood Pressure: 73 mm Hg
Participants [5]; Average
  Anxiety (VAS) MEAN (30-180): 74.4
Participants [5]; Average, listed as CA
  Anxiety (VAS) Mean Δ from 0: 65%
Participants [5]; Person one
  Anxiety (VAS) MEAN (30-180): 74.6
  Anxiety (VAS) Mean Δ from 0: +44.6
Participants [5]; Person one, 30 min
  Anxiety (Visual Analog Scale): 61
Participants [5]; Person one, 60 min
  Anxiety (Visual Analog Scale): 80
Participants [5]; Person one, 90 min
  Anxiety (Visual Analog Scale): 80
Participants [5]; Person one, 120 min
  Anxiety (Visual Analog Scale): 71
Participants [5]; Person one, 180 min
  Anxiety (Visual Analog Scale): 81
Participants [5]; [6]
  Anxiety (Visual Analog Scale): 30
Participants [5]; Person two
  Anxiety (VAS) MEAN (30-180): 74.2
  Anxiety (VAS) Mean Δ from 0: +14.2
Participants [5]; Person two, 30 min
  Anxiety (Visual Analog Scale): 70
Participants [5]; Person two, 60 min
  Anxiety (Visual Analog Scale): 75
Participants [5]; Person two, 90 min
  Anxiety (Visual Analog Scale): 76
Participants [5]; Person two, 120 min
  Anxiety (Visual Analog Scale): 75
Participants [5]; Person two, 180 min
  Anxiety (Visual Analog Scale): 75
Participants [5]; [7]
  Anxiety (Visual Analog Scale): 60
